Where two headings read alike, the source gives them in different places.
Assays:
DYRK1A = DYRK1A (Homo sapiens, UniProt Q13627); assay: In vitro kinase inhibition, ADP-Glo enzyme activity assay; type: biochemical
Protocol: (§1) (1) The positive drug was diluted in a 4-fold gradient with DMSO in a dilution plate, with the final initial concentrations of the compound being 1 & 0.02 & 0.1 μM.
(§2) (2) The compound was diluted 50-fold into the 1× kinase reaction buffer and oscillated on an oscillator for 20 min.
(§3) (3) The 2× kinase was prepared using the 1× enzyme reaction buffer.
(§4) (4) 2 μL of the kinase was added per well to the reaction plate.
(§5) (5) 1 μL of the compound diluted in the buffer was added to each well. The plate was sealed with a plate-sealing film, centrifuged at 1000 rpm for 60 s, and incubated at 25° C. for 10 min.
(§6) (6) 4× ATP & sub mixture was prepared using the 1× enzyme reaction buffer, and 1 μL of the 4× ATP & sub mixture was added to the reaction plate.
(§7) (7) The plate was sealed with a plate-sealing film, centrifuged at 1000 rpm for 60 s, and incubated at 25° C. for 60 min.
(§8) (8) 4 μL of ADP-Glo was transferred to the 384 reaction plate, and the plate was centrifuged at 1000 rpm for 1 min and incubated at 25° C. for 40 min.
(§9) (9) 8 μL of Detection solution was transferred to the 384 reaction plate, and the plate was centrifuged at 1000 rpm for 1 min and incubated at 25° C. for 40 min.
(§10) (10) The RLU (relative luminescence unit) signal was read using a BMG multifunctional microplate reader, and the signal intensity was used to characterize the degree of the kinase activity.
(§11) • (1) the ratio of each well was calculated; • (2) the inhibition rate was calculated as follows:
(§12) compound inhibition rate (% inh)=100%−(compound−positive control)/(negative control−positive control)×100% • (3) the IC50 was calculated, and the inhibition curves of the compounds were plotted: • the following nonlinear fitting formula was used to obtain the IC50 (half maximal inhibitory concentration) of the compounds: Graphpad 7.0 software was used for data analysis.
(§13) [formula] • X: log value of the concentration of the compound, Y: inhibition rate (% inhibition).

CLK2 = CLK2 (Homo sapiens, UniProt P49760); assay: as above; type: biochemical
Protocol: as §1, §2, §3, §4, §5, §6, §7, §8, §9, §10, §11, §12, §13

CLK3 = CLK3 (Homo sapiens, UniProt P49761); assay: as above; type: biochemical
Protocol: as §1, §2, §3, §4, §5, §6, §7, §8, §9, §10, §11, §12, §13

CLK4 = CLK4 (Homo sapiens, UniProt Q9HAZ1); assay: as above; type: biochemical; details: read-out: Enzymatic activity (IC50) CLK4
Protocol: as §1, §2, §3, §4, §5, §6, §7, §8, §9, §10, §11, §12, §13

CLK1 = CLK1 (Homo sapiens, UniProt P49759); assay: as above; type: biochemical; details: read-out: Enzymatic activity (IC50) CLK1
Protocol: as §1, §2, §3, §4, §5, §6, §7, §8, §9, §10, §11, §12, §13

ACLT model rats = assay: In vivo pharmacodynamics in osteoarthritis rats, RT-qPCR of cartilage; design: species or system rat; details: for expression of ADAMTS5 in cartilage (RT-qPCR) / expression of IHH in cartilage (RT-qPCR) / expression of MMP3 in cartilage (RT-qPCR) / expression of MMP13 in cartilage (RT-qPCR): week 5, versus model group
Protocol: 1. 40 rats were evenly divided into 4 groups, namely, Control (normal rats injected with physiological saline into the joint cavity), Model (ACLT Model rats injected with physiological saline into the joint cavity), low-dose administration group (ACLT Model rats injected with LH020 (1.5 μg/kg) into the joint cavity), and high-dose administration group (ACLT Model rats injected with LH020 (6 μg/kg) into the joint cavity).
2. Knee osteoarthritis was induced by resection of anterior cruciate ligament of the rats (ACLT model).
3. The first week after surgery, physiological saline or LH-020 (1.5 μg/kg. 6 μg/kg) was injected into the joint cavity.
4. Week 5 after administration, cartilage was collected, and the expression of cartilage-associated proteases (MMP3, MMP13, ADAMTS5, IHH, etc.) was detected by RT-qPCR.

[1] = related art statement; cited from earlier work
[2] = read-out: Enzymatic activity (IC50) DYRK1A
[3] = read-out: Enzymatic activity (IC50) CLK2
[4] = read-out: Enzymatic activity (IC50) CLK3
[5] = high-dose group 6 μg/kg into the joint cavity, effect superior to low-dose group
[6] = low-dose group 1.5 μg/kg into the joint cavity

Sequence of CLK4 (Q9HAZ1 whole entry): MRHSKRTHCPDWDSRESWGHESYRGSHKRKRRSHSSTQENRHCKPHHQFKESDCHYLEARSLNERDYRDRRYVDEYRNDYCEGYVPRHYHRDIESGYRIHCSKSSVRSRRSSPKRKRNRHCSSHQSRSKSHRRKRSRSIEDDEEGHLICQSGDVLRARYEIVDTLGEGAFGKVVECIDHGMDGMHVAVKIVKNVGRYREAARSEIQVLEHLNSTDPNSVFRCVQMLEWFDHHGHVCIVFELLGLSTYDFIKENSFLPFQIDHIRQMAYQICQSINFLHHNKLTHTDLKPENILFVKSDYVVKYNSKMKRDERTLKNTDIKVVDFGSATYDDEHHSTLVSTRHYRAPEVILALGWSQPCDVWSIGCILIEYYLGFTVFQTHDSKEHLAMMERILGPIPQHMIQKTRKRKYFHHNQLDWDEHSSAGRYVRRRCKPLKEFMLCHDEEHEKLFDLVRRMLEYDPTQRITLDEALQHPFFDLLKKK
Sequence of CLK3 (P49761 whole entry): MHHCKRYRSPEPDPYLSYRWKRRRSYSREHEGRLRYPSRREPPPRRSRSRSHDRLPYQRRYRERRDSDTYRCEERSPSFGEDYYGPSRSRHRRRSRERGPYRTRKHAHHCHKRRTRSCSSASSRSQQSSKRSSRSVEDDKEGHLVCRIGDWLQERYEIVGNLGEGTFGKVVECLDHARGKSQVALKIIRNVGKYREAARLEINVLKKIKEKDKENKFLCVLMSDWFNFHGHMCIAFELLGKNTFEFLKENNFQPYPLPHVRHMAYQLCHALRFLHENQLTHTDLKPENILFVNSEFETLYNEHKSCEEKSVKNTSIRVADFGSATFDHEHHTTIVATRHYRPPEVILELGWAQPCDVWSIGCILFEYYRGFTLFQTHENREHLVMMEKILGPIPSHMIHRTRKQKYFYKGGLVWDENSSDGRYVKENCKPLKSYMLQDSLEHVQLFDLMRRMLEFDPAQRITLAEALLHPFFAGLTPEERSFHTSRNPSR
Sequence of CLK2 (P49760 whole entry): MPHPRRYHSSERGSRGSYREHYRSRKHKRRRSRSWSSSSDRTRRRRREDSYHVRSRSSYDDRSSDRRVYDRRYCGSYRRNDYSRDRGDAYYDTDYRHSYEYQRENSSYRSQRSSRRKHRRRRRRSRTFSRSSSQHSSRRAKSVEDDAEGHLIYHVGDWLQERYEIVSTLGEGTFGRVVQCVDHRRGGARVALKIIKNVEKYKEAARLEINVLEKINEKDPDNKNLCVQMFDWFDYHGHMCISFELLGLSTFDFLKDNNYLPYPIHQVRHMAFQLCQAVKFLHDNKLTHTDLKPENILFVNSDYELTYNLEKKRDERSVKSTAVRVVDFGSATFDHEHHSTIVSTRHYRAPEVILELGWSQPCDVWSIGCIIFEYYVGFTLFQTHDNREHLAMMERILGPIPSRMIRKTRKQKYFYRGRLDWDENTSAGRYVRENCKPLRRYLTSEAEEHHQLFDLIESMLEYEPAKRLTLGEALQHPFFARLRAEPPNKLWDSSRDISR
Sequence of CLK1 (P49759 whole entry): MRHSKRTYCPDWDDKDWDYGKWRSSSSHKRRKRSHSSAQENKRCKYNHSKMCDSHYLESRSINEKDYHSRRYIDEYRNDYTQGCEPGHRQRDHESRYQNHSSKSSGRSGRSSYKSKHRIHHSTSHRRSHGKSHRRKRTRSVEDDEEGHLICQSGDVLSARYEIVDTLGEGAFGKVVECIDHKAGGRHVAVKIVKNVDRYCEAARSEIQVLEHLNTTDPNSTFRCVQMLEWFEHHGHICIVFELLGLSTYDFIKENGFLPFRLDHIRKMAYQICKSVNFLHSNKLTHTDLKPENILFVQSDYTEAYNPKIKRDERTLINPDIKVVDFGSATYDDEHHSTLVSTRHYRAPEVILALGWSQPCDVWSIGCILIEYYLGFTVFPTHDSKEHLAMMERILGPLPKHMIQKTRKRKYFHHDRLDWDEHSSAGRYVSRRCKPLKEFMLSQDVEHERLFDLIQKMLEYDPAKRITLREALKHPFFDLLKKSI

SMILES | IC50 (DYRK1A; [2]) | IC50 (CLK2; [3]) | IC50 (CLK3; [4]) | IC50 (CLK4) | IC50 (CLK1) | also measured
O=c1nc(-c2n[nH]c3ccc(-c4cncc(NCC5CCCCC5)c4)cc23)[nH]c2ccccc12 [LH-006] | 10 to 50 nM | 10 to 50 nM | 50 to 100 nM | 10 to 50 nM | 10 to 50 nM | 
O=c1nc(-c2n[nH]c3ccc(-c4cncc(CN5CCC(F)(F)C5)c4)cc23)[nH]c2ccccc12 [LH-009] | < 10 nM | < 10 nM | < 10 nM | 10 to 50 nM | < 10 nM | 
O=c1nc(-c2n[nH]c3ccc(-c4cccnc4)cc23)[nH]c2ccccc12 [LH-010] | 10 to 50 nM | < 10 nM | 10 to 50 nM | > 100 nM | 10 to 50 nM | 
CN(C)Cc1cncc(-c2ccc3[nH]nc(-c4nc(=O)c5ccccc5[nH]4)c3c2)c1 [LH-011] | 50 to 100 nM | < 10 nM | 50 to 100 nM | > 100 nM | 50 to 100 nM | 
CCS(=O)(=O)Nc1cncc(-c2ccc3[nH]nc(-c4nc(=O)c5ccccc5[nH]4)c3c2)c1 [LH-017] | < 10 nM | < 10 nM | > 100 nM | 50 to 100 nM | < 10 nM | 
O=c1nc(-c2n[nH]c3ccc(-c4cncc(O)c4)cc23)[nH]c2ccccc12 [LH-018] | < 10 nM | < 10 nM | 10 to 50 nM | < 10 nM | 50 to 100 nM | 
CN1CCN(Cc2cncc(-c3ccc4[nH]nc(-c5nc(=O)c6ccccc6[nH]5)c4c3)c2)CC1 [LH-019] | 10 to 50 nM | < 10 nM | > 100 nM | 50 to 100 nM | < 10 nM | 
CC(C)C[C@H](N)COc1cncc(-c2ccc3[nH]nc(-c4nc(=O)c5ccccc5[nH]4)c3c2)c1 [LH-020] | < 10 nM | < 10 nM | 50 to 100 nM | 10 to 50 nM | < 10 nM | chondroprotective effect (ACLT model rats; ACLT model rats, 1.5 and 6 μg/kg into the joint cavity): significant chondroprotective effect; expression of ADAMTS5 in cartilage (RT-qPCR) (ACLT model rats; [5]): significantly down-regulate; expression of IHH in cartilage (RT-qPCR) (ACLT model rats; [5]): significantly down-regulate; expression of MMP3 in cartilage (RT-qPCR) (ACLT model rats; [5]): significantly down-regulate; expression of MMP13 in cartilage (RT-qPCR) (ACLT model rats; [5]): significantly down-regulate; expression of ADAMTS5 in cartilage (RT-qPCR) (ACLT model rats; [6]): significantly down-regulate; expression of IHH in cartilage (RT-qPCR) (ACLT model rats; [6]): significantly down-regulate; expression of MMP3 in cartilage (RT-qPCR) (ACLT model rats; [6]): significantly down-regulate; expression of MMP13 in cartilage (RT-qPCR) (ACLT model rats; [6]): significantly down-regulate; IC50 (DYRK1A; read-out: IC50 for DYRK1A): 3 nM; IC50 (CLK2; read-out: IC50 for CLK2): 2 nM; selectivity index for CLK3 (CLK3; CLK3 versus CLK2): 41.5; IC50 (CLK3; read-out: IC50 for CLK3): 81 nM
CC(C)C[C@H](N)COc1cncc(-c2ccc3[nH]nc(-c4nc(=O)c5ccncc5[nH]4)c3c2)c1 [LH-037] | < 10 nM | 10 to 50 nM | < 10 nM | 10 to 50 nM | < 10 nM | 
CC(C)CC(=O)Nc1cncc(-c2ccc3[nH]nc(-c4cccnc4)c3c2)c1 [LH-039] | 10 to 50 nM | 10 to 50 nM | < 10 nM | 50 to 100 nM | 50 to 100 nM | 
CC(C)CC(=O)Nc1cncc(-c2ccc3[nH]nc(-c4ccncc4)c3c2)c1 [LH-040] | < 10 nM | < 10 nM | 10 to 50 nM | < 10 nM | 50 to 100 nM | 
CC(C)CC(=O)Nc1cncc(-c2ccc3[nH]nc(-c4ccc5ocnc5c4)c3c2)c1 [LH-041] | 10 to 50 nM | < 10 nM | < 10 nM | 10 to 50 nM | 10 to 50 nM | 
CC(C)CC(=O)Nc1cncc(-c2ccc3[nH]nc(C4=NCc5ccccc5N4)c3c2)c1 [LH-048] | < 10 nM | < 10 nM | < 10 nM | 10 to 50 nM | < 10 nM | 
FC1(F)CCN(Cc2cncc(-c3ccc4[nH]nc(C5=NCc6ccccc6N5)c4c3)c2)C1 [LH-049] | < 10 nM | < 10 nM | 10 to 50 nM | > 100 nM | 50 to 100 nM | 
CC(C)CC(=O)Nc1cncc(-c2ccc3[nH]nc(-c4nc5c(-c6cccc(F)c6)cncc5[nH]4)c3c2)c1 [SM04690] |  |  |  |  |  | water solubility [1]: poor

The next lines start with results.

IC50 (DYRK1A; [2]) | IC50 (CLK2; [3]) | IC50 (CLK3; [4]) | IC50 (CLK4) | IC50 (CLK1) | SMILES | also measured
10 to 50 nM | < 10 nM | < 10 nM | 50 to 100 nM | < 10 nM | CC(C)CC(=O)Nc1cncc(-c2ccc3[nH]nc(-c4nc(=O)c5ccccc5[nH]4)c3c2)c1 [LH-001] | 
50 to 100 nM | < 10 nM | < 10 nM | > 100 nM | < 10 nM | O=C(CC1CC1)Nc1cncc(-c2ccc3[nH]nc(-c4nc(=O)c5ccccc5[nH]4)c3c2)c1 [LH-003] | 
10 to 50 nM | 10 to 50 nM | 10 to 50 nM | 50 to 100 nM | < 10 nM | O=C(Nc1cncc(-c2ccc3[nH]nc(-c4nc(=O)c5ccccc5[nH]4)c3c2)c1)C1CCCC1 [LH-004] | 
10 to 50 nM | 10 to 50 nM | 50 to 100 nM | 10 to 50 nM | 50 to 100 nM | O=C(CC1CCCCC1)Nc1cncc(-c2ccc3[nH]nc(-c4nc(=O)c5ccccc5[nH]4)c3c2)c1 [LH-005] | 
< 10 nM | < 10 nM | 10 to 50 nM | < 10 nM | 10 to 50 nM | CC(C)(C)C(=O)Nc1cncc(-c2ccc3[nH]nc(-c4nc(=O)c5ccccc5[nH]4)c3c2)c1 [LH-015] | 
10 to 50 nM | < 10 nM | 10 to 50 nM | 10 to 50 nM | < 10 nM | O=C(Nc1cncc(-c2ccc3[nH]nc(-c4nc(=O)c5ccccc5[nH]4)c3c2)c1)C1CC(F)(F)C1 [LH-016] | 

Reference: US20260070889A1, “5-PYRIDINE-1H-INDAZOLE COMPOUND, PHARMACEUTICAL COMPOSITION, AND USE” (CHINA PHARMACEUTICAL UNIVERSITY, priority 2022, published 2026)
